Experimental data taken from patent US20250179194A1, “COMPOSITIONS AND METHODS FOR IMMUNOTHERAPY TARGETING FLT3, PD-1, AND/OR PD-L1” (Cytoimmune Therapeutics, Inc., priority 2018, published 2025).

Tests used:
[1] = system: surface FLT3 expression in MOLM-13, U937, THP-1, MV4-11, and EOL-1 AML cell lines; experiment: Surface FLT3 expression in AML cell lines after FLT3 inhibitor treatment; assay type: cell-based, human; conditions: 10 μM, 48 hours
[2] = system: FLT3 surface density expression on AML blasts; experiment: Surface FLT3 expression by flow cytometry on AML patient blasts; assay type: cell-based, human; conditions: 48 hours, peripheral blood samples
Method: FIG. 11 depicts the quantification of FLT3 surface density expression by flow cytometry on AML blasts before and after being treated with Midostaurin for 48 hours.
Further experiments were conducted to determine whether FLT3 expression was increased upon administration of an FLT3 inhibitor. […] FIG. 11 depicts the detection of surface FLT3 expression by flow cytometry in peripheral blood samples of patients who were treated with Midostaurin for 48 hours.

Compound	FLT3 surface expression in AML cell lines [1]	FLT3 surface expression on AML patient blasts [2]
CCCNc1nc(Nc2ccc(C#N)cc2)ncc1C#CCCCNC(=O)[C@H](C)N(C)C(=O)/C=C/CN(C)C [FF-10101]	upregulated	–
Dovitinib [Dovitinib (TKI-258)]	upregulated	–
CO[C@@H]1[C@H](N(C)C(=O)c2ccccc2)C[C@H]2O[C@]1(C)n1c3ccccc3c3c4c(c5c6ccccc6n2c5c31)C(=O)NC4 [Midostaurin]	upregulated	upregulated
